Laboratory results taken from patent US20060029743A1, “Wood preservatives and methods of wood preservation” (priority 2004, published 2006).
In brackets after ≈: the same amount, converted by molar mass. Like-named read-outs stand apart in the source and are kept apart here.

How the values were obtained:
Assay in all cases: 6-well plate assay, minimal inhibitory concentration
Assay type in all cases: cell-based
Antrodia vaillantii = details: for MIC: Fibroporia vaillantii, 168 h, read-out: Effectiveness at Inhibiting Wood-Rotting Fungi, BR3 (minimal inhibitory concentration)
Method: (§1) The minimal inhibitory concentration of fungicides against eight fungi was determined in 6-well microtiter plates. Minimal inhibitory concentration is defined as the lowest concentration at which no fungus growth is evident after seven days. A group of eight fungi were used in a screen to identify potential active ingredients to preserve wood. The eight fungi, their classification, and the growth media used to culture them are listed below:
(§2) Growth media were purchased from Difco (from Beckton Dickinson and Co., Sparks, Md.). The growth media were added to water to 2% w/v and autoclaved at 121° C. for 30 min. Autoclaved media were allowed to cool down to ˜50° C. Test chemicals were dissolved in DMSO (dimethyl sulfoxide) individually at 10 mg/mL to generate stock solutions. An appropriate amount of a stock solution was then added to the appropriate growth medium at 50° C. to make up the test media containing various concentrations of individual test chemicals. 10 mL of the medium was added to each well of a 6-well plate and allowed to solidify at room temperature. For each plate, the first well had no chemical, and the remaining five wells contained a particular test chemical at five different concentrations. Eight such plates were prepared for each chemical, using the eight media listed above for the eight test organisms.
(§3) After the media solidified and cooled, a plug (˜2 mm×2 mm) of agar growth medium with fresh grown mycelium from the appropriate fungal culture was used to inoculate each well. The plate was placed in an incubator, and the growth of the fungus monitored. After 4 to 7 days, the growth was scored manually.

Chaetomium globosum = details: for MIC: Chaetomium globosum, 168 h, read-out: Effectiveness at Inhibiting Wood-Rotting Fungi, SR1 (minimal inhibitory concentration)
Method: as §1, §2, §3

Gloeophyllum trabeum = details: for MIC: Gloeophyllum trabeum, 168 h, read-out: Effectiveness at Inhibiting Wood-Rotting Fungi, BR2 (minimal inhibitory concentration)
Method: as §1, §2, §3

Irpex lacteus = details: for MIC: Irpex lacteus, 168 h, read-out: Effectiveness at Inhibiting Wood-Rotting Fungi, WR2 (minimal inhibitory concentration)
Method: as §1, §2, §3

[1] = test system: Phanerochaete chrysosporium; details: for MIC: Phanerodontia chrysosporium, 168 h, read-out: Effectiveness at Inhibiting Wood-Rotting Fungi, WR3 (minimal inhibitory concentration)
Method: as §1, §2, §3

Postia placenta = details: for MIC: Rhodonia placenta, 168 h, read-out: Effectiveness at Inhibiting Wood-Rotting Fungi, BR1 (minimal inhibitory concentration)
Method: as §1, §2, §3

Trametes versicolor = details: for MIC: Trametes versicolor, 168 h, read-out: Effectiveness at Inhibiting Wood-Rotting Fungi, WR1 (minimal inhibitory concentration)
Method: as §1, §2, §3

[2] = 6-well agar plate, lowest concentration with no growth after seven days

Row | Structure (SMILES) | MIC (Antrodia vaillantii; [2]) [µg/mL] | MIC (Chaetomium globosum; [2]) [µg/mL] | MIC (Gloeophyllum trabeum; [2]) [µg/mL] | MIC (Irpex lacteus; [2]) [µg/mL] | MIC [1, 2] [µg/mL] | MIC (Postia placenta; [2]) [µg/mL] | MIC (Trametes versicolor; [2]) [µg/mL] | also measured
1 | O=[N+]([O-])c1cc(C(F)(F)F)c(Cl)c([N+](=O)[O-])c1Nc1ncc(C(F)(F)F)cc1Cl [Fluazinam] | < 1 | < 1 | < 1 | 1 to 100 (≈ 2.15 to 215 µM) | 1 to 100 (≈ 2.15 to 215 µM) | < 1 | 1 to 100 (≈ 2.15 to 215 µM) | 
2 | CON=C(C(=O)OC)c1ccccc1CON=C(C)c1cccc(C(F)(F)F)c1 [Trifloxystrobin] | < 1 | > 100 | < 1 | > 100 | > 100 | 1 to 100 (≈ 2.45 to 245 µM) | > 100 | 
3 | CCCN(CCOc1c(Cl)cc(Cl)cc1Cl)C(=O)n1ccnc1 [Prochloraz] |  |  |  |  |  |  |  | MIC (Antrodia vaillantii): 1 to 100 µg/mL (≈ 2.65 to 265 µM); MIC (Chaetomium globosum): < 1 µg/mL; MIC (Gloeophyllum trabeum): > 100 µg/mL; MIC (Irpex lacteus): 1 to 100 µg/mL (≈ 2.65 to 265 µM); MIC [1]: 1 to 100 µg/mL (≈ 2.65 to 265 µM); MIC (Postia placenta): > 100 µg/mL; MIC (Trametes versicolor): 1 to 100 µg/mL (≈ 2.65 to 265 µM)
4 | CO/C=C(\C(=O)OC)c1ccccc1Oc1cc(Oc2ccccc2C#N)ncn1 [Axoxystrobin] |  |  |  |  |  |  |  | Effectiveness at Inhibiting Wood-Rotting Fungi, BR3 (minimal inhibitory concentration) (Antrodia vaillantii; [2]): 1 (“1” indicates effective inhibition at 1 ppm or less); Effectiveness at Inhibiting Wood-Rotting Fungi, SR1 (minimal inhibitory concentration) (Chaetomium globosum; [2]): 3 (“3” indicates inhibition (if any) only at >100 ppm); Effectiveness at Inhibiting Wood-Rotting Fungi, BR2 (minimal inhibitory concentration) (Gloeophyllum trabeum; [2]): 1 (“1” indicates effective inhibition at 1 ppm or less); Effectiveness at Inhibiting Wood-Rotting Fungi, WR2 (minimal inhibitory concentration) (Irpex lacteus; [2]): 3 (“3” indicates inhibition (if any) only at >100 ppm); Effectiveness at Inhibiting Wood-Rotting Fungi, WR3 (minimal inhibitory concentration) [1, 2]: 3 (“3” indicates inhibition (if any) only at >100 ppm); Effectiveness at Inhibiting Wood-Rotting Fungi, BR1 (minimal inhibitory concentration) (Postia placenta; [2]): 1 (“1” indicates effective inhibition at 1 ppm or less); Effectiveness at Inhibiting Wood-Rotting Fungi, WR1 (minimal inhibitory concentration) (Trametes versicolor; [2]): 3 (“3” indicates inhibition (if any) only at >100 ppm)
5 | COC(=O)Nc1nc2ccccc2[nH]1 [Carbendazim] | 1 to 100 (≈ 5.23 to 523 µM) | < 1 | > 100 | 1 to 100 (≈ 5.23 to 523 µM) | 1 to 100 (≈ 5.23 to 523 µM) | 1 to 100 (≈ 5.23 to 523 µM) | > 100 | 
6 | CN(C)C(=S)[S-].CN(C)C(=S)[S-].CN(C)C(=S)[S-].[Fe+3] [Ferbam] |  |  |  |  |  |  |  | Effectiveness at Inhibiting Wood-Rotting Fungi, BR3 (minimal inhibitory concentration) (Antrodia vaillantii; [2]): 2 (“2” indicates inhibition at about 1-100 ppm); Effectiveness at Inhibiting Wood-Rotting Fungi, SR1 (minimal inhibitory concentration) (Chaetomium globosum; [2]): 2 (“2” indicates inhibition at about 1-100 ppm); Effectiveness at Inhibiting Wood-Rotting Fungi, BR2 (minimal inhibitory concentration) (Gloeophyllum trabeum; [2]): 3 (“3” indicates inhibition (if any) only at >100 ppm); Effectiveness at Inhibiting Wood-Rotting Fungi, WR2 (minimal inhibitory concentration) (Irpex lacteus; [2]): 2 (“2” indicates inhibition at about 1-100 ppm); Effectiveness at Inhibiting Wood-Rotting Fungi, WR3 (minimal inhibitory concentration) [1, 2]: 2 (“2” indicates inhibition at about 1-100 ppm); Effectiveness at Inhibiting Wood-Rotting Fungi, BR1 (minimal inhibitory concentration) (Postia placenta; [2]): 1 (“1” indicates effective inhibition at 1 ppm or less); Effectiveness at Inhibiting Wood-Rotting Fungi, WR1 (minimal inhibitory concentration) (Trametes versicolor; [2]): 2 (“2” indicates inhibition at about 1-100 ppm)
7 | Nc1nc(=O)[nH]cc1F [5-Fluorocytosine] | 1 to 100 (≈ 7.75 to 775 µM) | > 100 | > 100 | > 100 | > 100 | < 1 | 1 to 100 (≈ 7.75 to 775 µM) | 
8 | CCCC1COC(Cn2cncn2)(c2ccc(Cl)cc2Cl)O1 (stereo not shown) [Propiconazole] | < 1 | < 1 | < 1 | < 1 | < 1 | < 1 | < 1 | 
9 | CC(C)(C)C(O)C(Oc1ccc(Cl)cc1)n1cncn1 (stereo not shown) [Baytan] |  |  |  |  |  |  |  | Effectiveness at Inhibiting Wood-Rotting Fungi, BR3 (minimal inhibitory concentration) (Antrodia vaillantii; [2]): 1 (“1” indicates effective inhibition at 1 ppm or less); Effectiveness at Inhibiting Wood-Rotting Fungi, SR1 (minimal inhibitory concentration) (Chaetomium globosum; [2]): 3 (“3” indicates inhibition (if any) only at >100 ppm); Effectiveness at Inhibiting Wood-Rotting Fungi, BR2 (minimal inhibitory concentration) (Gloeophyllum trabeum; [2]): 1 (“1” indicates effective inhibition at 1 ppm or less); Effectiveness at Inhibiting Wood-Rotting Fungi, WR2 (minimal inhibitory concentration) (Irpex lacteus; [2]): 1 (“1” indicates effective inhibition at 1 ppm or less); Effectiveness at Inhibiting Wood-Rotting Fungi, WR3 (minimal inhibitory concentration) [1, 2]: 1 (“1” indicates effective inhibition at 1 ppm or less); Effectiveness at Inhibiting Wood-Rotting Fungi, BR1 (minimal inhibitory concentration) (Postia placenta; [2]): 2 (“2” indicates inhibition at about 1-100 ppm); Effectiveness at Inhibiting Wood-Rotting Fungi, WR1 (minimal inhibitory concentration) (Trametes versicolor; [2]): 1 (“1” indicates effective inhibition at 1 ppm or less)
10 | CC(C)(C)C(O)(CCc1ccc(Cl)cc1)Cn1cncn1 (stereo not shown) [Tebuconazole] | < 1 | 1 to 100 (≈ 3.25 to 325 µM) | < 1 | < 1 | < 1 | < 1 | < 1 | 
11 | O=[N+]([O-])c1c(Cl)c(Cl)c(Cl)c(Cl)c1Cl [Pentachloronitrobenzene] |  |  |  |  |  |  |  | MIC (Antrodia vaillantii): > 100 µg/mL; MIC (Chaetomium globosum): < 1 µg/mL; MIC (Gloeophyllum trabeum): 1 to 100 µg/mL (≈ 3.39 to 339 µM); MIC (Irpex lacteus): > 100 µg/mL; MIC [1]: > 100 µg/mL; MIC (Postia placenta): 1 to 100 µg/mL (≈ 3.39 to 339 µM); MIC (Trametes versicolor): > 100 µg/mL
12 | CCCCNC(=O)n1c(NC(=O)OC)nc2ccccc21 [Benomyl] | 1 to 100 (≈ 3.44 to 344 µM) | < 1 | > 100 | > 100 | 1 to 100 (≈ 3.44 to 344 µM) | 1 to 100 (≈ 3.44 to 344 µM) | > 100 | 
13 | CC(Cc1ccc(C(C)(C)C)cc1)CN1C[C@@H](C)O[C@@H](C)C1 (stereo partly shown) [Fenpropimorph] | 1 to 100 (≈ 3.3 to 330 µM) | > 100 | < 1 | 1 to 100 (≈ 3.3 to 330 µM) | 1 to 100 (≈ 3.3 to 330 µM) | < 1 | 1 to 100 (≈ 3.3 to 330 µM) | 
14 | Oc1cccc2cccnc12 [8-Hydroxyquinoline] |  |  |  |  |  |  |  | MIC (Antrodia vaillantii): < 1 µg/mL; MIC (Chaetomium globosum): > 100 µg/mL; MIC (Gloeophyllum trabeum): > 100 µg/mL; MIC (Irpex lacteus): 1 to 100 µg/mL (≈ 6.89 to 689 µM); MIC [1]: > 100 µg/mL; MIC (Postia placenta): 1 to 100 µg/mL (≈ 6.89 to 689 µM); MIC (Trametes versicolor): 1 to 100 µg/mL (≈ 6.89 to 689 µM)
15 | CC1=C(C(=O)Nc2ccccc2)SCCO1 [Carboxin] |  |  |  |  |  |  |  | MIC (Antrodia vaillantii): < 1 µg/mL; MIC (Chaetomium globosum): 1 to 100 µg/mL (≈ 4.25 to 425 µM); MIC (Gloeophyllum trabeum): < 1 µg/mL; MIC (Irpex lacteus): < 1 µg/mL; MIC [1]: < 1 µg/mL; MIC (Postia placenta): 1 to 100 µg/mL (≈ 4.25 to 425 µM); MIC (Trametes versicolor): < 1 µg/mL
16 | c1ccc2[nH]c(-c3cscn3)nc2c1 [Thiabendazole] | > 100 | < 1 | > 100 | > 100 | > 100 | > 100 | > 100 | 
